Patent US9238796B2, “Cell growth-promoting peptide and use thereof” (TOAGOSEI CO., LTD., priority 2010, dated 2016)
No end group written: not given here.

How the values were obtained:
[1] = tested on: Rat bone marrow-derived stem cells (mesenchymal stem cells); assay: Evaluation of cell growth-promoting activity, WST-8 colorimetric method (Example 2); assay type: cell-based; conditions: WST-8 absorbance at 450 nm, peptide approximately 2 μM, bFGF 10 ng/mL; for OD450 at the start of cultivation: day 0; for OD450 after 2 days: day 2; for OD450 after 4 days: day 4
Description: (§1) Experimental sections were set up that used the cell growth-promoting peptides obtained in Example 1 (samples 1 to 21) as a cell growth promoter and that used a commercially available bFGF as a cell growth promoter as a comparative example. For the control, a peptide-free section (the bFGF was also not added) was set up.
(§2) The details of the evaluation testing are provided below. Each synthesized sample peptide was dissolved in PBS (phosphate-buffered physiological saline) to prepare a stock solution with a peptide concentration of 1 mM.
(§3) Rat bone marrow-derived stem cells (mesenchymal stem cells) were used as the test cells. Specifically, the test stem cells were cultured by passage on Dulbecco's MEM medium (DMEM medium: Gibco product) containing 10% fetal bovine serum (FBS: Gibco product), 2 mM of L-glutamine, 50 unit/mL of penicillin, and 50 μg/mL of streptomycin. From the second passage to the fourth passage (passages 2 to 4) were used in this evaluation testing.
(§4) Thus, the test stem cells were preliminarily recovered by treatment with a 0.05% trypsin-0.53 mM EDTA solution; a test stem cell solution, prepared with the DMEM medium containing 10 ng/mL of bFGF to provide 1×10^4 cells/mL, was seeded to each well of a 96-well plate to provide a cell count of 1×10^3 per well; and pre-cultivation was carried out overnight. The amount of medium was brought to 100 μL per well for this.
(§5) The medium in each well was then exchanged for fresh medium to which a stock solution of a peptide selected from sample 1 to 21 had been added, so as to give a concentration of the peptide in each well of approximately 2 μM. For comparison, in some wells the medium in the well was exchanged for fresh medium to which a commercially available bFGF (product of PeproTech) had been added to give a concentration of 10 ng/mL (the bFGF experimental section in Table 3).
(§6) After the addition of the sample peptide or bFGF as indicated above, the 96-well plate was placed in a CO2 incubator and cultivation at quiescence was carried out at 37° C. under 5% CO2. Medium exchange was performed every other day. The exchange medium was the same as that used at the start of cultivation (i.e., the same sample peptide or bFGF was also added to the exchange medium as in the sample peptide addition section or bFGF addition section).
During this cultivation test, a “water-soluble tetrazolium salt (WST-8)” was added as a chromogenic reagent to some wells at the start of cultivation (day 0), at two days after the start of cultivation (day 2), and at four days after the start of cultivation (day 4). After incubation for 2 hours after the addition, the cell culture fluid to which the chromogenic reagent had been added was recovered. The extent of cell growth was evaluated by a colorimetric method in which, based on reduction of the tetrazolium salt, the absorbance (OD450) at a wavelength of 450 nm was measured.

[2] = tested on: Rat bone marrow-derived stem cells (mesenchymal stem cells); assay: Evaluation of cell growth-promoting activity, WST-8 colorimetric method (Example 5); assay type: cell-based; conditions: WST-8 absorbance at 450 nm, peptide approximately 2 μM, bFGF 10 ng/mL; for OD450 at the start of cultivation: day 0; for OD450 after 4 days: day 4
Description: as §1, with “Example 4” for “Example 1”, “(samples 22” for “(samples 1”, “to 42)” for “to 21)”
as §2, §3, §4
as §5, with “sample 22” for “sample 1”, “to 42” for “to 21”, “Table 6).” for “Table 3).”
as §6
During this cultivation test, a “water-soluble tetrazolium salt (WST-8)” was added as a chromogenic reagent to some wells at the start of cultivation (day 0) and at four days after the start of cultivation (day 4). After incubation for 2 hours after the addition, the cell culture fluid to which the chromogenic reagent had been added was recovered. The extent of cell growth was evaluated by a colorimetric method in which, based on reduction of the tetrazolium salt, the absorbance (OD450) at a wavelength of 450 nm was measured.

| Sequence | OD450 at the start of cultivation [1] | OD450 after 2 days [1] | OD450 after 4 days [1] | OD450 at the start of cultivation [2] | OD450 after 4 days [2] |
| --- | --- | --- | --- | --- | --- |
| LLLAAWTVRAGKKRTLRKNDRKKR (LLLAAWTVRAGKKRTLRKNDRKKR-NH2) [compound 7] | 0.058 | 0.176 | 0.499 |  |  |
| LLLAAWTARAGKKRTLRKNDRKKR (LLLAAWTARAGKKRTLRKNDRKKR-NH2) [compound 28] |  |  |  | 0.051 | 0.532 |
| PSLALLLLAAWTVRAGKKRTLRKNDRKKR (PSLALLLLAAWTVRAGKKRTLRKNDRKKR-NH2) [sample 2] | 0.058 | 0.136 | 0.297 |  |  |
| LAAWTVRAGKKRTLRKNDRKKR (LAAWTVRAGKKRTLRKNDRKKR-NH2) [compound 9] | 0.058 | 0.179 | 0.398 |  |  |
| MLPSLALLLLAGKKRTLRKNDRKKR (MLPSLALLLLAGKKRTLRKNDRKKR-NH2) [compound 17] | 0.058 | 0.176 | 0.468 |  |  |
| AAWTARAGKKRTLRKNDRKKR (AAWTARAGKKRTLRKNDRKKR-NH2) [compound 31] |  |  |  | 0.051 | 0.401 |
| LLLLAAWTVRAGKKRTLRKNDRKKR (LLLLAAWTVRAGKKRTLRKNDRKKR-NH2) [compound 6] | 0.058 | 0.186 | 0.483 |  |  |
| ALLLLAAWTARAGKKRTLRKNDRKKR (ALLLLAAWTARAGKKRTLRKNDRKKR-NH2) [compound 26] |  |  |  | 0.051 | 0.509 |
| MLPSLALLLLAAGKKRTLRKNDRKKR (MLPSLALLLLAAGKKRTLRKNDRKKR-NH2) [compound 16] | 0.058 | 0.172 | 0.525 |  |  |
| MLPSLALLLLGKKRTLRKNDRKKR (MLPSLALLLLGKKRTLRKNDRKKR-NH2) [compound 18] | 0.058 | 0.184 | 0.505 |  |  |
| MLPGLALGKKRTLRKNDRKKR (MLPGLALGKKRTLRKNDRKKR-NH2) [compound 42] |  |  |  | 0.051 | 0.346 |
| MLPSLALLLGKKRTLRKNDRKKR (MLPSLALLLGKKRTLRKNDRKKR-NH2) [compound 19] | 0.058 | 0.163 | 0.478 |  |  |
| GLALLLLAAWTARAGKKRTLRKNDRKKR (GLALLLLAAWTARAGKKRTLRKNDRKKR-NH2) [compound 24] |  |  |  | 0.051 | 0.327 |
| WTVRAGKKRTLRKNDRKKR (WTVRAGKKRTLRKNDRKKR-NH2) [compound 12] | 0.058 | 0.181 | 0.388 |  |  |
| MLPSLALLLLAAWTVGKKRTLRKNDRKKR (MLPSLALLLLAAWTVGKKRTLRKNDRKKR-NH2) [compound 13] | 0.058 | 0.123 | 0.232 |  |  |
| LLLLAAWTARAGKKRTLRKNDRKKR (LLLLAAWTARAGKKRTLRKNDRKKR-NH2) [compound 27] |  |  |  | 0.051 | 0.511 |
| MLPSLALLGKKRTLRKNDRKKR (MLPSLALLGKKRTLRKNDRKKR-NH2) [compound 20] | 0.058 | 0.158 | 0.320 |  |  |
| AWTVRAGKKRTLRKNDRKKR (AWTVRAGKKRTLRKNDRKKR-NH2) [compound 11] | 0.058 | 0.169 | 0.403 |  |  |
| MLPSLALGKKRTLRKNDRKKR (MLPSLALGKKRTLRKNDRKKR-NH2) [compound 21] | 0.058 | 0.155 | 0.332 |  |  |

| Sequence | OD450 at the start of cultivation [1] | OD450 after 2 days [1] | OD450 after 4 days [1] | OD450 at the start of cultivation [2] | OD450 after 4 days [2] |
| --- | --- | --- | --- | --- | --- |
| LALLLLAAWTVRAGKKRTLRKNDRKKR (LALLLLAAWTVRAGKKRTLRKNDRKKR-NH2) [compound 4] | 0.058 | 0.136 | 0.304 |  |  |
| MLPSLALLLLAAWTVRAGKKRTLRKNDRKKR (MLPSLALLLLAAWTVRAGKKRTLRKNDRKKR-NH2) [sample 1] | 0.058 | 0.132 | 0.243 |  |  |
| MLPSLALLLLAAWGKKRTLRKNDRKKR (MLPSLALLLLAAWGKKRTLRKNDRKKR-NH2) [compound 15] | 0.058 | 0.133 | 0.276 |  |  |
| LAAWTARAGKKRTLRKNDRKKR (LAAWTARAGKKRTLRKNDRKKR-NH2) [compound 30] |  |  |  | 0.051 | 0.413 |
| MLPGLALLLLGKKRTLRKNDRKKR (MLPGLALLLLGKKRTLRKNDRKKR-NH2) [sample 39] |  |  |  | 0.051 | 0.538 |
| MLPGLALLLLAGKKRTLRKNDRKKR (MLPGLALLLLAGKKRTLRKNDRKKR-NH2) [compound 38] |  |  |  | 0.051 | 0.491 |
| MLPGLALLLLAAGKKRTLRKNDRKKR (MLPGLALLLLAAGKKRTLRKNDRKKR-NH2) [sample 37] |  |  |  | 0.051 | 0.571 |
| PGLALLLLAAWTARAGKKRTLRKNDRKKR (PGLALLLLAAWTARAGKKRTLRKNDRKKR-NH2) [compound 23] |  |  |  | 0.051 | 0.391 |
| MLPSLALLLLAAWTGKKRTLRKNDRKKR (MLPSLALLLLAAWTGKKRTLRKNDRKKR-NH2) [compound 14] | 0.058 | 0.132 | 0.293 |  |  |
| MLPGLALLLLAAWTGKKRTLRKNDRKKR (MLPGLALLLLAAWTGKKRTLRKNDRKKR-NH2) [compound 35] |  |  |  | 0.051 | 0.299 |
| LALLLLAAWTARAGKKRTLRKNDRKKR (LALLLLAAWTARAGKKRTLRKNDRKKR-NH2) [compound 25] |  |  |  | 0.051 | 0.319 |
| MLPGLALLLGKKRTLRKNDRKKR (MLPGLALLLGKKRTLRKNDRKKR-NH2) [compound 40] |  |  |  | 0.051 | 0.487 |
| AWTARAGKKRTLRKNDRKKR (AWTARAGKKRTLRKNDRKKR-NH2) [compound 32] |  |  |  | 0.051 | 0.433 |
| ALLLLAAWTVRAGKKRTLRKNDRKKR (ALLLLAAWTVRAGKKRTLRKNDRKKR-NH2) [compound 5] | 0.058 | 0.189 | 0.483 |  |  |
| MLPGLALLLLAAWGKKRTLRKNDRKKR (MLPGLALLLLAAWGKKRTLRKNDRKKR-NH2) [compound 36] |  |  |  | 0.051 | 0.288 |
| LLAAWTVRAGKKRTLRKNDRKKR (LLAAWTVRAGKKRTLRKNDRKKR-NH2) [compound 8] | 0.058 | 0.168 | 0.418 |  |  |
| AAWTVRAGKKRTLRKNDRKKR (AAWTVRAGKKRTLRKNDRKKR-NH2) [compound 10] | 0.058 | 0.149 | 0.389 |  |  |
| SLALLLLAAWTVRAGKKRTLRKNDRKKR (SLALLLLAAWTVRAGKKRTLRKNDRKKR-NH2) [sample 3] | 0.058 | 0.139 | 0.293 |  |  |
